Measured values from ChEMBL document CHEMBL1909046, “DrugMatrix in vitro pharmacology data”.

Experiments:
[1] = target: Matrix metalloproteinase-9 (Homo sapiens, UniProt P14780); assay: biochemical; type: cell-based;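 further: inhibition of isolated MMP-9 enzyme activity toward a synthetic peptide substrate, from the DrugMatrix protease screening panel; in other assays of this panel Not Active means under 50% inhibition at 10 µM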
Leukotriene C4 synthase = target: T1, Leukotriene C4 synthase (Cavia porcellus, UniProt A6XA80); type: tissue-based, Lung;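 further: enzyme inhibition assay of leukotriene C4 synthase, using LTA4 as the substrate; in other assays of this panel Not Active means under 50% inhibition at 10 µM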
T1 sequence (A6XA80 whole entry): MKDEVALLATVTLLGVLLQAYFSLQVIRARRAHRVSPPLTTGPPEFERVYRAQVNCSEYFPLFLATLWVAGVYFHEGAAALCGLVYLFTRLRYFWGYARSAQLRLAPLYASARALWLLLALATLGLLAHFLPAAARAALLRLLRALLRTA

Cytochrome P450 2A6 = target: T2, Cytochrome P450 2A6 (Homo sapiens, UniProt P11509); conditions: bti-tn-5b1-4; further: in other assays of this panel Not Active means under 50% inhibition at 10 µM
T2 sequence (P11509 whole entry): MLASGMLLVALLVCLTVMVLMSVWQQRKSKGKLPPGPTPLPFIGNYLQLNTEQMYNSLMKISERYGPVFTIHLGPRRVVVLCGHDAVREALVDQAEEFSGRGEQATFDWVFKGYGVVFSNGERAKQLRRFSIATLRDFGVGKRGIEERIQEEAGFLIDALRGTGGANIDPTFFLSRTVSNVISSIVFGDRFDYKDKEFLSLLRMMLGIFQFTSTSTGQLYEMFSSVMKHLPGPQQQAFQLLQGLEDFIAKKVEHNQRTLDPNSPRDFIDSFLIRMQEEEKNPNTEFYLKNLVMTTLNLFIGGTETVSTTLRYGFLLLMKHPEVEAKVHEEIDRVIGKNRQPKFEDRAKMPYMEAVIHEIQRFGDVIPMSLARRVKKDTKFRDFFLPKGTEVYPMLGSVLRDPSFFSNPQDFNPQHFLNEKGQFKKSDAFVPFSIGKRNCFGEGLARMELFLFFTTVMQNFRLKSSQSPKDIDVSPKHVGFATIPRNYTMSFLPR

Vasopressin V1a receptor = Vasopressin V1a receptor (Homo sapiens, UniProt P37288); type: cell membranes, Membrane; conditions: hek293; further: in other assays of this panel Not Active means under 50% inhibition at 10 µM
Vasopressin V1a receptor, sequence (P37288 whole entry): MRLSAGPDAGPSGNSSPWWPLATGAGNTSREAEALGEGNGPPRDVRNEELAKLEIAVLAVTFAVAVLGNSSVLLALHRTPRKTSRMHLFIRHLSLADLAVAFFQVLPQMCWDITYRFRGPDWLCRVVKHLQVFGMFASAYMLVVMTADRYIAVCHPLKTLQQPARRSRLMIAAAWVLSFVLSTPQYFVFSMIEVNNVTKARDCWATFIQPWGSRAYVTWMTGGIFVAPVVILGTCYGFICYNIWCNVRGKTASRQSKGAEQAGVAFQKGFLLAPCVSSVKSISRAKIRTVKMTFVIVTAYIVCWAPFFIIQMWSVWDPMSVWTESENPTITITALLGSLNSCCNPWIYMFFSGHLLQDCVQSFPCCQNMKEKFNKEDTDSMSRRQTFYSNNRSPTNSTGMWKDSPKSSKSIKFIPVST

[2] = DRUGMATRIX: Glutamate, Kainate radioligand binding (ligand: [3H] Kainic acid); type: cell membranes, Rattus norvegicus, Wistar, Brain, Membrane; conditions: Not Active = under 50% inhibition at 10 µM
[3] = target: T3, 5-hydroxytryptamine receptor 2C (Homo sapiens, UniProt P28335); assay: DRUGMATRIX: Serotonin (5-Hydroxytryptamine) 5-HT2C radioligand binding (ligand: [3H] Mesulergine); type: cell membranes, CHO-K1, Membrane; conditions: cho-k1; Not Active = under 50% inhibition at 10 µM
T3 sequence (P28335 whole entry): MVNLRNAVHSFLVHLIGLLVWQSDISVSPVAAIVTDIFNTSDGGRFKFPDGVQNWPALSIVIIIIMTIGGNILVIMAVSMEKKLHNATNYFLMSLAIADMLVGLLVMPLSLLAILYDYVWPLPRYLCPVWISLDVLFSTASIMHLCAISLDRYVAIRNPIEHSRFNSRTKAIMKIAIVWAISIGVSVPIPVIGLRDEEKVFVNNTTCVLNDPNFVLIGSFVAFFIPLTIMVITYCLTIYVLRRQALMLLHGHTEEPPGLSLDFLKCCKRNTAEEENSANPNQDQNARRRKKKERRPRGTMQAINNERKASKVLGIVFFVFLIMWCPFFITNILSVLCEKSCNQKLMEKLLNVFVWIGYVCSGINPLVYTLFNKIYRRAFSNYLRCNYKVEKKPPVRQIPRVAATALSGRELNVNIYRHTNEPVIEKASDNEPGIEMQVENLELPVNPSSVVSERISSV

[4] = DRUGMATRIX: Leukotriene, BLT (LTB4) radioligand binding (ligand: [3H]LTB4); type: cell membranes, Membrane; conditions: u-937; Not Active = under 50% inhibition at 10 µM

Matrix metalloproteinase-9, sequence (P14780 whole entry): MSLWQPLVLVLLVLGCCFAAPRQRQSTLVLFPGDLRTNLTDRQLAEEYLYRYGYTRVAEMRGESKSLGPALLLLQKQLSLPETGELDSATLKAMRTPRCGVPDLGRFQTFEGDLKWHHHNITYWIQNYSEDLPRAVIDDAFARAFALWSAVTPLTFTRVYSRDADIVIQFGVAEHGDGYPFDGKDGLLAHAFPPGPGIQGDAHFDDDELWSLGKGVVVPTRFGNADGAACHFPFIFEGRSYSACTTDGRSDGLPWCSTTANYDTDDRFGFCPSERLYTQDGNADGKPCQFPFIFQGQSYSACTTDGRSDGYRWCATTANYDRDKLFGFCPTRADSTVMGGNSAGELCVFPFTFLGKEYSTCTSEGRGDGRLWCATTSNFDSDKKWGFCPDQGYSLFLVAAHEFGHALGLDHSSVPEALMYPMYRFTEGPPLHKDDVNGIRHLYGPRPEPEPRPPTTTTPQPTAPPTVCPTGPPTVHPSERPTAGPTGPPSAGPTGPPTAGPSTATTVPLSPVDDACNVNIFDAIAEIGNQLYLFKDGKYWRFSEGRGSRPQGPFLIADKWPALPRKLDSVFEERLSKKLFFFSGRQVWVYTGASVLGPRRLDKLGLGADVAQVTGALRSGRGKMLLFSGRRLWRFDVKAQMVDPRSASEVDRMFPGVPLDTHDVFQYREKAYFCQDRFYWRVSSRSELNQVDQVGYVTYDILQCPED

C[C@H]1C[C@@H]2[C@H]([C@@H](O)C[C@@]3(C)[C@H]2CC[C@]3(O)C(=O)CO)[C@@]2(C)C=CC(=O)C=C12 [METHYLPREDNISOLONE]
Not Active: IC50 [1] | IC50 (Leukotriene C4 synthase) | IC50 (Cytochrome P450 2A6) | Ki (Cytochrome P450 2A6) | IC50 (Vasopressin V1a receptor) | IC50 [2] | Ki [2] | IC50 [3] | IC50 [4] | Ki [4]

Cc1cccc(C)c1OCC(C)N (stereo not given) [MEXILETINE]
Not Active: IC50 [1] | IC50 (Leukotriene C4 synthase) | IC50 (Cytochrome P450 2A6) | Ki (Cytochrome P450 2A6) | IC50 (Vasopressin V1a receptor) | IC50 [2] | Ki [2] | IC50 [3] | IC50 [4] | Ki [4]

Nc1cc(N2CCCCC2)nc(N)[n+]1[O-] [MINOXIDIL]
Not Active: IC50 [1] | IC50 (Leukotriene C4 synthase) | IC50 (Cytochrome P450 2A6) | Ki (Cytochrome P450 2A6) | IC50 (Vasopressin V1a receptor) | IC50 [2] | Ki [2] | IC50 [3] | IC50 [4] | Ki [4]

CO[C@H]1/C=C/O[C@@]2(C)Oc3c(C)c(O)c4c(O)c(c(/C=N/N5CCN(C6CCCC6)CC5)c(O)c4c3C2=O)NC(=O)/C(C)=C\C=C\[C@H](C)[C@H](O)[C@@H](C)[C@@H](O)[C@@H](C)[C@H](OC(C)=O)[C@@H]1C [RIFAPENTINE]
Not Active: IC50 [1] | IC50 (Leukotriene C4 synthase) | IC50 (Cytochrome P450 2A6) | Ki (Cytochrome P450 2A6) | IC50 (Vasopressin V1a receptor) | IC50 [2] | Ki [2] | IC50 [3] | IC50 [4] | Ki [4]

CCCCOc1cc(CC2CNC(=O)N2)ccc1OC (stereo not given) [RO-201724]
Not Active: IC50 [1] | IC50 (Leukotriene C4 synthase) | IC50 (Cytochrome P450 2A6) | Ki (Cytochrome P450 2A6) | IC50 (Vasopressin V1a receptor) | IC50 [2] | Ki [2] | IC50 [3] | IC50 [4] | Ki [4]

CC[C@@H](C(=O)[C@@H](C)[C@@H](O)[C@H](C)[C@@H]1O[C@@H]([C@@H](CC)C(=O)O)CC[C@@H]1C)[C@H]1O[C@]2(C=C[C@@H](O)[C@]3(CC[C@@](C)([C@H]4CC[C@](O)(CC)[C@H](C)O4)O3)O2)[C@H](C)C[C@@H]1C [SALINOMYCIN]
Not Active: IC50 [1] | IC50 (Leukotriene C4 synthase) | IC50 (Cytochrome P450 2A6) | Ki (Cytochrome P450 2A6) | IC50 (Vasopressin V1a receptor) | IC50 [2] | Ki [2] | IC50 [3] | IC50 [4] | Ki [4]

O=C(Oc1ccccc1C(=O)O)c1ccccc1O [SALSALATE]
Not Active: IC50 [1] | IC50 (Leukotriene C4 synthase) | IC50 (Cytochrome P450 2A6) | Ki (Cytochrome P450 2A6) | IC50 (Vasopressin V1a receptor) | IC50 [2] | Ki [2] | IC50 [3] | IC50 [4] | Ki [4]

O=C(O)c1cn(-c2ccc(F)cc2)c2cc(N3CCNCC3)c(F)cc2c1=O [SARAFLOXACIN]
Not Active: IC50 [1] | IC50 (Leukotriene C4 synthase) | IC50 (Cytochrome P450 2A6) | Ki (Cytochrome P450 2A6) | IC50 (Vasopressin V1a receptor) | IC50 [2] | Ki [2] | IC50 [3] | IC50 [4] | Ki [4]
